Measurements taken from PMC7505474, “Toll-like receptor 4-mediated inflammation triggered by extracellular IFI16 is enhanced by lipopolysaccharide binding” (PLoS Pathogens, 2020).
pKd: −log10 of the molar value. “Also recorded” adds a separate entry of the source. Like-named read-outs stand apart in the source and are kept apart here.

Key:
IFI16 [1] = target: T1, IFI16 (Homo sapiens, UniProt Q16666); experiment: Saturation binding ELISA, full-length IFI16 on immobilized LPS variants / lipid A
T1 construct: obtained with the full-length recombinant IFI16 protein; made in house
T1 sequence (Q16666 1-729 isoform Q16666-2): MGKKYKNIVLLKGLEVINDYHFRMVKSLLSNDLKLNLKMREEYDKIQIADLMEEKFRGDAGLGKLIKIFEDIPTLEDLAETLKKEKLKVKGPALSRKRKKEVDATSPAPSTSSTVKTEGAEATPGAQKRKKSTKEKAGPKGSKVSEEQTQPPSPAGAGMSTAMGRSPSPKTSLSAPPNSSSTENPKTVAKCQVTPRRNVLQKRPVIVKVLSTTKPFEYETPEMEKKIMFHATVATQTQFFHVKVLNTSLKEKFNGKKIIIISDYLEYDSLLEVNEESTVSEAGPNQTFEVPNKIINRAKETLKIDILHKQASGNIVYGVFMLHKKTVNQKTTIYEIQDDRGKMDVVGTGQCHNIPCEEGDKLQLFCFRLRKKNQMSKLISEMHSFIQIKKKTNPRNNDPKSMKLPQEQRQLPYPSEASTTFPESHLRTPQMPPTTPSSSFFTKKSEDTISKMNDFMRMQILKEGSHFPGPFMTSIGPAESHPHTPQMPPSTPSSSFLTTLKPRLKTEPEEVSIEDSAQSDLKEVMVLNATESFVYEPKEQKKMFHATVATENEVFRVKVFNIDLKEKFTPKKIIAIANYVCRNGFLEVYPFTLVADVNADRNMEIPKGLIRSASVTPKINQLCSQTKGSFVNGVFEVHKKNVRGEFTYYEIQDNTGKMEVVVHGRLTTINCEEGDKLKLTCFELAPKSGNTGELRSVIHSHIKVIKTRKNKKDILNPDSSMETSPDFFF
Description: (§1) For saturation binding experiments, microtiter plates (Nunc-Immuno MaxiSorp, Thermo Fischer Scientific) were coated with 2 μg/ml of recombinant IFI16 or 10 μg/ml of BSA or GST in 1X PBS O/N at 4°C. After a washing step with 1X PBS and 0.25% Tween 20 (v/v, Sigma-Aldrich) and blocking step with 1X PBS with 3% BSA and 0.05% Tween 20 for 1 h, increasing concentrations of biotin-labeled LPS-EB, preincubated with 10 μg/ml of polymyxin B (PMB) when specified, were added to the wells and incubated for 1 h at room temperature (RT). Bound proteins were then detected using HRP-conjugated streptavidin. TMB solution (Thermo Fischer Scientific) was used for color development, and OD was measured at 450 nm. Alternatively, microtiter plates were coated with 10 μg/ml of LPS-EB, LPS-PG, LPS-RS, LPS-F583, MPLA, DPLA, or detoxLPS in 1X PBS for 24 h at RT. After washing and blocking for 2 h, increasing concentrations of IFI16, PYRIN, HINA, or HINB were added to the wells, preincubated with 10 μg/ml of PMB when specified, for 2 h. Anti-IFI16 antibodies against the N- or the C-terminus of the protein and HRP-labeled anti-rabbit IgG were then added as primary and secondary antibodies, respectively. The binding was detected as described above.
(§2) For competitive ELISA, microtiter plates were coated with 1 μg/ml LPS-EB in 1X PBS O/N at RT. Successively, a constant amount of 2 μg/ml IFI16 was added to the wells in the presence of increasing concentration of LPS-EB, MPLA or detoxLPS. After incubation for 4 h at RT under gentle agitation, plates were incubated with an anti-IFI16 N-terminal primary antibody and an HRP-conjugated anti-rabbit IgG secondary antibody. The binding was detected as described above. To determine KD constants, saturation binding experiments were performed, and data were fitted to the Langmuir isotherm equation, which describes the equilibrium binding of the ligands. Data are reported as sigmoid concentration-response curves plotted against log concentrations.

PYRIN = target: T2, PYRIN (Homo sapiens, UniProt Q16666); experiment: Saturation binding ELISA, PYRIN domain on immobilized LPS variants / lipid A
T2 construct: the N-terminal portion containing the pyrin domain (PYRIN); made in house; host or cells: bacteria (pET30a vector)
T2 sequence (Q16666 1-88 limits assumed): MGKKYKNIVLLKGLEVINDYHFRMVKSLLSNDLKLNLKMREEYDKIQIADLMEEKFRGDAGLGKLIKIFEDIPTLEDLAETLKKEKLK
Description: as §1, §2

HINA = target: T3, HINA (Homo sapiens, UniProt Q16666); experiment: Saturation binding ELISA, HINA domain on immobilized LPS variants / lipid A
T3 construct: each of the 200 amino acid-long HIN domains (namely HINA or HINB); made in house; host or cells: bacteria (pET30a vector)
T3 sequence (Q16666 189-389 limits assumed): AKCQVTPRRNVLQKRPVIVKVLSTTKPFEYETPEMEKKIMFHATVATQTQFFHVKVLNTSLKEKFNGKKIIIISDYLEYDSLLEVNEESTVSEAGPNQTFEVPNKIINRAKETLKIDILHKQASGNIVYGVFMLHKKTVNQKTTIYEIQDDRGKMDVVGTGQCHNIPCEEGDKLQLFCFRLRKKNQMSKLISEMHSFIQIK
Description: as §1, §2

HINB = target: T4, HINB (Homo sapiens, UniProt Q16666); experiment: Saturation binding ELISA, HINB domain on immobilized LPS variants / lipid A
T4 construct: each of the 200 amino acid-long HIN domains (namely HINA or HINB); made in house; host or cells: bacteria (pET30a vector)
T4 sequence (Q16666 562-761 limits assumed): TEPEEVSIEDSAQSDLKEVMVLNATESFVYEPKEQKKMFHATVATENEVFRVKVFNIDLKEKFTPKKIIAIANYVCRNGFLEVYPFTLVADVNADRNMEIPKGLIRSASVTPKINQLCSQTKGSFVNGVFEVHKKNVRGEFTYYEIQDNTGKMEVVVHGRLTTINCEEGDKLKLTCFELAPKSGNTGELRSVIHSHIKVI
Description: as §1, §2

IFI16 [2] = target: T1, IFI16; experiment: Competition ELISA for IFI16 binding to immobilized LPS-EB; settings: 1 μg/ml LPS-EB coated; 2 μg/ml IFI16; competitor 5 to 25 μg/ml
Description: as §2

IFI16 [3] = target: T1, IFI16; experiment: SPR, LPS-EB over CM5 IFI16-coated chip; type: binding; settings: LPS-EB 3.125–100 nM over immobilized IFI16
Description: Recombinant IFI16 was covalently immobilized onto the surface of sensor CM5 chips via amine coupling as done for TLR4 and TLR4/MD2 complex. IFI16 was diluted to a concentration of 25 μg/ml in 10 mM sodium acetate at pH 4.0. The target capture level of IFI16 was of 1,926.6 response units (RUs). Increasing concentrations of LPS-EB, diluted in HBS-EP+ buffer, were flowed over the CM5 sensor chip coated with IFI16 at a flow rate of 30 μl/min at 25°C with an association time of 180 s and a dissociation phase of 600 s. A single regeneration step with 50 mM NaOH was performed following each analytic cycle. The KDs were evaluated using the BIAcore evaluation software (GE Healthcare) and the reliability of the kinetic constants calculated by assuming a 1:1 binding model supported by the quality assessment indicators values.

TLR4/MD2 receptor = target: T5, TLR4/MD2 receptor (Homo sapiens, UniProt O00206+Q9Y6Y9); experiment: SPR, analytes over immobilized TLR4/MD2; type: binding
T5 construct: purchased R&D Systems 3146-TM-050/CF
Description: The Biacore X100 (GE Healthcare) instrument was used for real-time binding interaction experiments. Recombinant TLR4 or TLR4/MD2 complex was covalently immobilized onto the surface of sensor CM5 (cat # BR100012, GE Healthcare) chips via amine coupling. TLR4 was diluted to a concentration of 10 μg/ml in 10 mM sodium acetate at pH 4.0, while TLR4/MD2 complex was diluted to a concentration of 20 μg/ml in the same buffer. Both proteins were injected on CM5 chips at a flow rate of 10 μl/min, upon activation of the carboxyl groups on the sensor surface with 7-min injection of a mixture of 0.2 M EDC and 0.05 M NHS. The remaining esters were blocked with 7-min injection of ethanolamine. Taking into account the ligands (TLR4 or TLR4/MD2) and analytes (IFI16, LPS-EB or IFI16/LPS-EB) molecular weights (MW) of 70 or 90 kDa, and 90, 10 or 100 kDa respectively, the appropriate ligand density (RL) on the chip was calculated according to the following equation: RL = (ligand MW/analyte MW) × Rmax × (1/Sm), where Rmax is the maximum binding signal and Sm corresponds to the binding stoichiometry. The target capture level of the TLR4 or TLR4/MD2 was of 596.0 or 1,223.9 response units (RUs), respectively. […] Increasing concentrations of endotoxin-free IFI16, LPS-EB or IFI16/LPS-EB complex were flowed over the CM5 sensor chip coated with TLR4 or TLR4/MD2 at a flow rate of 30 μl/min at 25°C with an association time of 120 s for IFI16 alone and the IFI16/LPS-EB complex, and 180 s for LPS-EB, and a dissociation phase of 180 s for IFI16 and IFI16/LPS-EB complex or 600 s for LPS-EB. A single regeneration step with 50 mM NaOH was performed following each analytic cycle. All the analytes tested were diluted in the HBS-EP+ buffer (GE Healthcare). […]

IFI16 [4] = target: T1, IFI16; experiment: Saturation binding ELISA, IFI16-coated plates challenged with biotin-LPS-EB
Description: as §1

[5] = 10 μg/ml immobilized LPS variant or lipid A; increasing full-length IFI16; ELISA 450 nm; read-out: Equilibrium dissociation constant (KD), IFI16
[6] = 10 μg/ml immobilized LPS variant or lipid A; increasing PYRIN domain; read-out: Equilibrium dissociation constant (KD), PYRIN
[7] = 10 μg/ml immobilized LPS variant or lipid A; increasing HINA domain; read-out: Equilibrium dissociation constant (KD), HINA
[8] = 10 μg/ml immobilized LPS variant or lipid A; increasing HINB domain; read-out: Equilibrium dissociation constant (KD), HINB

T5 sequence (O00206 24-631 limits assumed): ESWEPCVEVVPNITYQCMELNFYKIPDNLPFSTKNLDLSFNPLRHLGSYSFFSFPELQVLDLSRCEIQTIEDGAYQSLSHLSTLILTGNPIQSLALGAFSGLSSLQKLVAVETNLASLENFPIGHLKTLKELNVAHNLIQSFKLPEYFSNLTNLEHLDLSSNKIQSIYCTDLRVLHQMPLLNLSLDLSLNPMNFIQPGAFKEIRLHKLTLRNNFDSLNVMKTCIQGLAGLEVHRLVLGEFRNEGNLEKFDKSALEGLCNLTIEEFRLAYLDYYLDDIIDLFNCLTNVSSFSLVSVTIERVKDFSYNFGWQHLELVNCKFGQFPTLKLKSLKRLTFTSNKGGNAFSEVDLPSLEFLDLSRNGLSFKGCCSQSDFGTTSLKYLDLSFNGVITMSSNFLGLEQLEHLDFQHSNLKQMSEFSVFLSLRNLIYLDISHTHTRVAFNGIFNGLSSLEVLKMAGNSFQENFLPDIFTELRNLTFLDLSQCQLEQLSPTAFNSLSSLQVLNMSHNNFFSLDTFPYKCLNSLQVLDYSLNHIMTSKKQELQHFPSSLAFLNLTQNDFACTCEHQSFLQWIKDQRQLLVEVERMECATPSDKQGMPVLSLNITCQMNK
T5 sequence (Q9Y6Y9 17-160 limits assumed): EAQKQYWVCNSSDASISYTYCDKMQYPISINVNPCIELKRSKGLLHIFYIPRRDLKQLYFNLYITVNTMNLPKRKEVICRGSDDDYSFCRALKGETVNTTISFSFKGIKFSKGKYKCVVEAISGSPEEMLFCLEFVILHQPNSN

| Molecule | pKd (IFI16 [1]; [5]) | pKd (PYRIN; [6]) | pKd (HINA; [7]) | pKd (HINB; [8]) | Competition for IFI16 binding to immobilized LPS-EB (IFI16 [2]) | also measured |
| --- | --- | --- | --- | --- | --- | --- |
| CCCCCCCCCCCCCC(=O)O[C@H](CCCCCCCCCCC)CC(=O)O[C@@H]1[C@@H](NC(=O)C[C@@H](CCCCCCCCCCC)OC(=O)CCCCCCCCCCC)[C@H](OC[C@H]2O[C@H](OP(=O)(O)O)[C@H](NC(=O)C[C@H](O)CCCCCCCCCCC)[C@@H](OC(=O)C[C@H](O)CCCCCCCCCCC)[C@@H]2O)O[C@H](CO)[C@H]1OP(=O)(O)O [DPLA, diphosphoryl lipid A from Escherichia coli F583] |  |  |  |  |  | pKd (IFI16 [1]; read-out: Equilibrium dissociation constant (KD), IFI16; 10 μg/ml immobilized LPS variant or lipid A; increasing full-length IFI16; ELISA 450 nm): 9.05; pKd (PYRIN; read-out: Equilibrium dissociation constant (KD), PYRIN; 10 μg/ml immobilized LPS variant or lipid A; increasing PYRIN domain): 7.32; pKd (HINA; read-out: Equilibrium dissociation constant (KD), HINA; 10 μg/ml immobilized LPS variant or lipid A; increasing HINA domain): 7.17; pKd (HINB; read-out: Equilibrium dissociation constant (KD), HINB; 10 μg/ml immobilized LPS variant or lipid A; increasing HINB domain): 8.55 |
| CCCCCCCCCCCCCC(=O)O[C@H](CCCCCCCCCCC)CC(=O)O[C@@H]1[C@@H](NC(=O)C[C@@H](CCCCCCCCCCC)OC(=O)CCCCCCCCCCC)[C@H](OC[C@H]2OC(O)[C@H](NC(=O)C[C@H](O)CCCCCCCCCCC)[C@@H](OC(=O)C[C@H](O)CCCCCCCCCCC)[C@@H]2O)O[C@H](CO)[C@H]1OP(=O)(O)O (some centres unmarked) [MPLA, monophosphoryl lipid A from Escherichia coli F583] | 8.92 | 7.33 | 7.03 | 8.57 | much stronger reduction in IFI16 binding to LPS |  |
| LPS from Escherichia coli F583 [LPS-F583] | 8.37 |  |  |  |  |  |
| LPS from Escherichia coli O111:B4 [LPS-EB] | 8.38 | 6.93 | 7.07 | 8.48 | reduced IFI16 binding to immobilized LPS in a concentration-dependent manner | kinetic association constant (Ka) (IFI16 [3]): 11300 M⁻¹ s⁻¹; kinetic dissociation constant (Kd) (IFI16 [3]; rate constant): 0.00194 s⁻¹; dissociation rate constant (Kd) (TLR4/MD2 receptor): 1e-06 s⁻¹; Ka (TLR4/MD2 receptor; association rate constant): 6840 M⁻¹ s⁻¹; dissociation rate constant (koff) (TLR4/MD2 receptor; dissociation rate constant): 1e-06 s⁻¹; pKd (TLR4/MD2 receptor; equilibrium dissociation constant, read-out: KD): 9.83; Rmax (TLR4/MD2 receptor; maximum response): 745.00 RU; pKd (TLR4/MD2 receptor; text / Fig 8C legend, read-out: equilibrium dissociation constant (KD)): 9.82 |
| LPS from Porphyromonas gingivalis [LPS-PG] | 7.92 | 7.33 | 7.08 | 8.80 |  |  |
| LPS from Rhodobacter sphaeroides [LPS-RS] | 7.71 |  |  |  |  |  |
| biotin-labeled LPS from Escherichia coli O111:B4 [biotin-LPS-EB] |  |  |  |  |  | biotin-LPS-EB concentration reaching saturation of solid-phase IFI16 (IFI16 [4]; 2 μg/ml IFI16 coated): 100,000 ng/ml |
| detoxified LPS from Escherichia coli O111:B4 [detoxLPS] |  |  |  |  | did not interfere |  |
| polymyxin B [PMB] |  |  |  |  |  | Effect of PMB pre-treatment of immobilized LPS / lipid A on IFI16 binding (IFI16 [1]; 10 μg/ml PMB): completely abolished IFI16 binding; also recorded: no signal was detected; Effect of PMB pre-incubated with biotin-LPS-EB on IFI16/LPS binding (IFI16 [4]; 10 μg/ml PMB, IFI16-coated wells): completely prevented IFI16 from binding to LPS |
